Values quoted from earlier work as cited in patent US7253172B2, “Dipeptidyl peptidase inhibitors for the treatment of diabetes” (Merck & Co., Inc., priority 2001, dated 2007).
Each block holds one compound with its values, some of them ahead of it.

What was measured:
cardiac allograft = details: rats; doubled from day 7 to day 14
hematopoiesis = details: mouse, cyclophosphamide-induced neutropenia
DP-IV = target: T1, DP-IV (Homo sapiens, UniProt P27487)
T1 construct: GRF is rapidly degraded in plasma to GRF[3–44]
T1 sequence (P27487 39-766 limits assumed): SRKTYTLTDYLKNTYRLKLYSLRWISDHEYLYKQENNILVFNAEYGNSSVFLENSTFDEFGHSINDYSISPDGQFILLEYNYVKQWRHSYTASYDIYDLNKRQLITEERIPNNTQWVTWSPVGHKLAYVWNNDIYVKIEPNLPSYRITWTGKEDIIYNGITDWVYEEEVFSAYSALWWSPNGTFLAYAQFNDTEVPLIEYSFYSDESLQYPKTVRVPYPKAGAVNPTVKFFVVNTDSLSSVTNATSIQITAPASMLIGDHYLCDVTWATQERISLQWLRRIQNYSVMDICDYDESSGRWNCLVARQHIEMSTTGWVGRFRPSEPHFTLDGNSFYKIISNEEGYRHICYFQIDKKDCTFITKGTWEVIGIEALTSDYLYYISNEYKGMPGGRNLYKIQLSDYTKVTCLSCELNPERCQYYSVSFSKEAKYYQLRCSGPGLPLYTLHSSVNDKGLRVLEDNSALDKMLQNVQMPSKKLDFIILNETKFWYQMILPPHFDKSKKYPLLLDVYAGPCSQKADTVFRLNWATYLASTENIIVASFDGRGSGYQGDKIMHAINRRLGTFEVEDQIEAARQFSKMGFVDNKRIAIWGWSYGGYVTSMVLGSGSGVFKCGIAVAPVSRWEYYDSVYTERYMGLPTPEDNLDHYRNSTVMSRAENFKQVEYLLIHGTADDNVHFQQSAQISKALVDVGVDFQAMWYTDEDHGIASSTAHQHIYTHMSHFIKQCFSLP

Compound: CC(C)N1CCC(c2ccccc2)(c2ccccc2)CC1 [Prodipine, Pro-Pro-diphenyl-phosphonate]
cardiac allograft survival (cardiac allograft): 14 day

Compound: CC(C)[C@H](N)C(=O)N1CCC[C@H]1B(O)O [Val-Boro-Pro]
hematopoiesis (hematopoiesis): stimulates hematopoiesis

degradation of GRF in plasma to GRF[3–44] (DP-IV): prevented
Compound: diprotin A
